Key:
Format in all cases: functional
NCI-H322M = experiment: Growth inhibition of human NCI-H322M cells assessed as cell growth at 10^-7 M by sulforhodamine B assay; details: read-out: Activity
SR = experiment: Growth inhibition of human SR cells assessed as cell growth at 10^-6 M by sulforhodamine B assay; details: read-out: Activity
786-0 = experiment: Growth inhibition of human 786-0 cells by sulforhodamine B assay
OVCAR-3 [1] = experiment: Growth inhibition of human OVCAR3 cells assessed as cell growth at 10^-7 M by sulforhodamine B assay; details: read-out: Activity
NCI-H522 = experiment: Growth inhibition of human NCI-H522 cells by sulforhodamine B assay
[2] = Growth inhibition of human NCI-ADR-RES cells by sulforhodamine B assay
RPMI-8226 = experiment: Growth inhibition of human RPMI8226 cells by sulforhodamine B assay
RXF 393 [3] = experiment: Growth inhibition of human RXF393 cells assessed as cell growth at 10^-8 M by sulforhodamine B assay; details: read-out: Activity
U-251 [4] = experiment: Growth inhibition of human U251 cells assessed as cell growth at 10^-8 M by sulforhodamine B assay; details: read-out: Activity
SNB-75 [5] = experiment: Growth inhibition of human SNB75 cells assessed as cell growth at 10^-4 M by sulforhodamine B assay; details: read-out: Activity
OVCAR-5 = experiment: Growth inhibition of human OVCAR5 cells assessed as cell growth at 10^-7 M by sulforhodamine B assay; details: read-out: Activity
KM12 = experiment: Growth inhibition of human KM12 cells assessed as cell growth at 10^-6 M by sulforhodamine B assay; details: read-out: Activity
SF-268 = experiment: Growth inhibition of human SF268 cells by sulforhodamine B assay
OVCAR-8 = experiment: Growth inhibition of human OVCAR8 cells assessed as cell growth at 10^-6 M by sulforhodamine B assay; details: read-out: Activity
ACHN = experiment: Growth inhibition of human ACHN cells assessed as cell growth at 10^-4 M by sulforhodamine B assay; details: read-out: Activity
COLO 205 = experiment: Growth inhibition of human COLO205 cells assessed as cell growth at 10^-6 M by sulforhodamine B assay; details: read-out: Activity
OVCAR-3 [6] = experiment: Growth inhibition of human OVCAR3 cells assessed as cell growth at 10^-4 M by sulforhodamine B assay; details: read-out: Activity
K562 = experiment: Growth inhibition of human K562 cells by sulforhodamine B assay
DU-145 = experiment: Growth inhibition of human DU145 cells assessed as cell growth at 10^-8 M by sulforhodamine B assay; details: read-out: Activity
[7] = Growth inhibition of human HCC2998 cells by sulforhodamine B assay
U-251 [8] = experiment: Growth inhibition of human U251 cells assessed as cell growth at 10^-6 M by sulforhodamine B assay; details: read-out: Activity
SK-MEL-2 = experiment: Growth inhibition of human SK-MEL-2 cells assessed as cell growth at 10^-8 M by sulforhodamine B assay; details: read-out: Activity
UACC-62 = experiment: Growth inhibition of human UACC62 cells assessed as cell growth at 10^-6 M by sulforhodamine B assay; details: read-out: Activity
PC-3 = experiment: Growth inhibition of human PC3 cells assessed as cell growth at 10^-8 M by sulforhodamine B assay; details: read-out: Activity
SNB-19 = experiment: Growth inhibition of human SNB19 cells assessed as cell growth at 10^-7 M by sulforhodamine B assay; details: read-out: Activity
HOP-62 [9] = experiment: Growth inhibition of human HOP62 cells assessed as cell growth at 10^-6 M by sulforhodamine B assay; details: read-out: Activity
MCF7 = experiment: Growth inhibition of human MCF7 cells assessed as cell growth at 10^-6 M by sulforhodamine B assay; details: read-out: Activity
NCI-H460 = experiment: Growth inhibition of human NCI-H460 cells assessed as cell growth at 10^-7 M by sulforhodamine B assay; details: read-out: Activity
UACC-257 = experiment: Growth inhibition of human UACC257 cells assessed as cell growth at 10^-4 M by sulforhodamine B assay; details: read-out: Activity
RXF 393 [10] = experiment: Growth inhibition of human RXF393 cells assessed as cell growth at 10^-4 M by sulforhodamine B assay; details: read-out: Activity
UO-31 = experiment: Growth inhibition of human UO31 cells assessed as cell growth at 10^-8 M by sulforhodamine B assay; details: read-out: Activity
SF-539 = experiment: Growth inhibition of human SF539 cells by sulforhodamine B assay
HOP-62 [11] = experiment: Growth inhibition of human HOP62 cells by sulforhodamine B assay
SNB-75 [12] = experiment: Growth inhibition of human SNB75 cells assessed as cell growth at 10^-7 M by sulforhodamine B assay; details: read-out: Activity
NCI-H226 = experiment: Growth inhibition of human NCI-H226 cells assessed as cell growth at 10^-8 M by sulforhodamine B assay; details: read-out: Activity
SK-MEL-28 = experiment: Growth inhibition of human SK-MEL-28 cells by sulforhodamine B assay
HL-60(TB) = experiment: Growth inhibition of human HL-60(TB) cells assessed as cell growth at 10^-8 M by sulforhodamine B assay; details: read-out: Activity
U-251 [13] = experiment: Growth inhibition of human U251 cells assessed as cell growth at 10^-7 M by sulforhodamine B assay; details: read-out: Activity
[14] = read-out: LC50 (the source's name)
[15] = read-out: pLC50 (the source's name) (converted)

Question: For CC(C)=CC(=O)O[C@@H]1CC(C)(C)C[C@H]2C3=CC[C@@H]4[C@@]5(C)CC[C@H](O)C(C)(C)[C@@H]5CC[C@@]4(C)[C@]3(C)CC[C@@]12C(=O)O [Reduced Lantadene B], which growth at 0.1 µM (NCI-H322M) is on record?
Answer: 89%

Question: And the growth at 1 µM (SR)?
Answer: 92%

Question: What about the GI50 (786-0; read-out: GI50) of the same compound?
Answer: 3.06 µM

Question: What about the CC50 (786-0; [14]) of the same compound?
Answer: 50.7 µM

Question: And the TGI (786-0; read-out: TGI)?
Answer: 11.5 µM

Question: What about the GI50 (786-0; read-out: pGI50 (converted)) of the same compound?
Answer: 3.09 µM

Question: And the CC50 (786-0; [15])?
Answer: 51.3 µM

Question: What about the TGI (786-0; read-out: pTGI (converted)) of the same compound?
Answer: 11.5 µM

Question: And the growth at 0.1 µM (OVCAR-3 [1])?
Answer: 105%

Question: And the GI50 (NCI-H522; read-out: GI50)?
Answer: 4.22 µM

Question: And the CC50 (NCI-H522; [14])?
Answer: 71.3 µM

Question: And the TGI (NCI-H522; read-out: TGI)?
Answer: 21.8 µM

Question: And the GI50 (NCI-H522; read-out: pGI50 (converted))?
Answer: 4.17 µM

Question: And the CC50 (NCI-H522; [15])?
Answer: 70.8 µM

Question: And the TGI (NCI-H522; read-out: pTGI (converted))?
Answer: 21.9 µM

Question: And the GI50 ([2]; read-out: GI50)?
Answer: 5.83 µM

Question: And the CC50 [2, 14]?
Answer: > 100 µM

Question: What about the TGI ([2]; read-out: TGI) of the same compound?
Answer: 35.9 µM

Question: And the GI50 ([2]; read-out: pGI50 (converted))?
Answer: 5.89 µM

Question: And the CC50 [2, 15]?
Answer: > 100 µM

Question: What about the TGI ([2]; read-out: pTGI (converted)) of the same compound?
Answer: 36.3 µM

Question: What about the GI50 (RPMI-8226; read-out: GI50) of the same compound?
Answer: 2.43 µM

Question: What about the CC50 (RPMI-8226; [14]) of the same compound?
Answer: > 100 µM

Question: What about the TGI (RPMI-8226; read-out: TGI) of the same compound?
Answer: 38.3 µM

Question: And the GI50 (RPMI-8226; read-out: pGI50 (converted))?
Answer: 2.45 µM

Question: What about the CC50 (RPMI-8226; [15]) of the same compound?
Answer: > 100 µM

Question: What about the TGI (RPMI-8226; read-out: pTGI (converted)) of the same compound?
Answer: 38 µM

Question: And the growth at 0.01 µM (RXF 393 [3])?
Answer: 97%

Question: What about the growth at 0.01 µM (U-251 [4]) of the same compound?
Answer: 96%

Question: And the growth at 100 µM (SNB-75 [5])?
Answer: -38%

Question: What about the growth at 0.1 µM (OVCAR-5) of the same compound?
Answer: 111%

Question: And the growth at 1 µM (KM12)?
Answer: 48%

Question: And the GI50 (SF-268; read-out: GI50)?
Answer: 5.87 µM

Question: And the LC50 (SF-268; read-out: LC50)?
Answer: 97.2 µM

Question: What about the TGI (SF-268; read-out: TGI) of the same compound?
Answer: 26.1 µM

Question: And the GI50 (SF-268; read-out: pGI50 (converted))?
Answer: 5.89 µM

Question: What about the LC50 (SF-268; read-out: pLC50 (converted)) of the same compound?
Answer: 97.7 µM

Question: And the TGI (SF-268; read-out: pTGI (converted))?
Answer: 26.3 µM

Question: What about the growth at 1 µM (OVCAR-8) of the same compound?
Answer: 82%

Question: And the growth at 100 µM (ACHN)?
Answer: -75%

Question: And the growth at 1 µM (COLO 205)?
Answer: 102%

Question: And the growth at 100 µM (OVCAR-3 [6])?
Answer: -83%

Question: And the GI50 (K562; read-out: GI50)?
Answer: 3.38 µM

Question: What about the LC50 (K562; read-out: LC50) of the same compound?
Answer: > 100 µM

Question: And the TGI (K562; read-out: TGI)?
Answer: 93.1 µM

Question: And the GI50 (K562; read-out: pGI50 (converted))?
Answer: 3.39 µM

Question: And the LC50 (K562; read-out: pLC50 (converted))?
Answer: > 100 µM

Question: And the TGI (K562; read-out: pTGI (converted))?
Answer: 93.3 µM

Question: What about the growth at 0.01 µM (DU-145) of the same compound?
Answer: 101%

Question: And the GI50 ([7]; HCC 2998, read-out: GI50)?
Answer: 3.72 µM

Question: And the CC50 ([7]; HCC 2998, read-out: LC50 (the source's name))?
Answer: 62.9 µM

Question: And the TGI ([7]; HCC 2998, read-out: TGI)?
Answer: 15.3 µM

Question: What about the GI50 ([7]; HCC 2998, read-out: pGI50 (converted)) of the same compound?
Answer: 3.72 µM

Question: What about the CC50 ([7]; HCC 2998, read-out: pLC50 (the source's name) (converted)) of the same compound?
Answer: 63.1 µM

Question: What about the TGI ([7]; HCC 2998, read-out: pTGI (converted)) of the same compound?
Answer: 15.5 µM

Question: What about the growth at 1 µM (U-251 [8]) of the same compound?
Answer: 73%

Question: What about the growth at 0.01 µM (SK-MEL-2) of the same compound?
Answer: 97%

Question: What about the growth at 1 µM (UACC-62) of the same compound?
Answer: 82%

Question: What about the growth at 0.01 µM (PC-3) of the same compound?
Answer: 97%

Question: What about the growth at 0.1 µM (SNB-19) of the same compound?
Answer: 86%

Question: And the growth at 1 µM (HOP-62 [9])?
Answer: 88%

Question: And the growth at 1 µM (MCF7)?
Answer: 88%

Question: What about the growth at 0.1 µM (NCI-H460) of the same compound?
Answer: 100%

Question: And the growth at 100 µM (UACC-257)?
Answer: -34%

Question: And the growth at 100 µM (RXF 393 [10])?
Answer: -81%

Question: And the growth at 0.01 µM (UO-31)?
Answer: 89%

Question: What about the GI50 (SF-539; read-out: GI50) of the same compound?
Answer: 8.94 µM

Question: And the CC50 (SF-539; [14])?
Answer: > 100 µM

Question: And the TGI (SF-539; read-out: TGI)?
Answer: 36.2 µM

Question: And the GI50 (SF-539; read-out: pGI50 (converted))?
Answer: 8.91 µM

Question: And the CC50 (SF-539; [15])?
Answer: > 100 µM

Question: And the TGI (SF-539; read-out: pTGI (converted))?
Answer: 36.3 µM

Question: What about the GI50 (HOP-62 [11]; read-out: GI50) of the same compound?
Answer: 7.47 µM

Question: What about the LC50 (concentration killing 50% of cells) (HOP-62 [11]; read-out: LC50) of the same compound?
Answer: 79.8 µM

Question: What about the TGI (HOP-62 [11]; read-out: TGI) of the same compound?
Answer: 26.6 µM

Question: What about the GI50 (HOP-62 [11]; read-out: pGI50 (converted)) of the same compound?
Answer: 7.41 µM

Question: And the LC50 (concentration killing 50% of cells) (HOP-62 [11]; read-out: pLC50 (converted))?
Answer: 79.4 µM

Question: And the TGI (HOP-62 [11]; read-out: pTGI (converted))?
Answer: 26.3 µM

Question: And the growth at 0.1 µM (SNB-75 [12])?
Answer: 89%

Question: What about the growth at 0.01 µM (NCI-H226) of the same compound?
Answer: 96%

Question: And the GI50 (SK-MEL-28; read-out: GI50)?
Answer: 4.89 µM

Question: What about the CC50 (SK-MEL-28; [14]) of the same compound?
Answer: 70.1 µM

Question: What about the TGI (SK-MEL-28; read-out: TGI) of the same compound?
Answer: 20.4 µM

Question: What about the GI50 (SK-MEL-28; read-out: pGI50 (converted)) of the same compound?
Answer: 4.9 µM

Question: What about the CC50 (SK-MEL-28; [15]) of the same compound?
Answer: 70.8 µM

Question: What about the TGI (SK-MEL-28; read-out: pTGI (converted)) of the same compound?
Answer: 20.4 µM

Question: And the growth at 0.01 µM (HL-60(TB))?
Answer: 101%

Question: What about the growth at 0.1 µM (U-251 [13]) of the same compound?
Answer: 96%
